The text below walks through data of patent publication US20050009840A1 (SUGEN, INC., priority 2003, published 2005).

The term Ki denotes a measure of affinity in units of concentration, obtained from inhibition or displacement. What is called inhibition is the percentage by which the read-out fell short of the control.

The target in one assay is T1, HGFR (Homo sapiens, UniProt P08581).
T1 construct: purchased Upstate 14-526
T1 sequence (P08581 974-1390 limits assumed): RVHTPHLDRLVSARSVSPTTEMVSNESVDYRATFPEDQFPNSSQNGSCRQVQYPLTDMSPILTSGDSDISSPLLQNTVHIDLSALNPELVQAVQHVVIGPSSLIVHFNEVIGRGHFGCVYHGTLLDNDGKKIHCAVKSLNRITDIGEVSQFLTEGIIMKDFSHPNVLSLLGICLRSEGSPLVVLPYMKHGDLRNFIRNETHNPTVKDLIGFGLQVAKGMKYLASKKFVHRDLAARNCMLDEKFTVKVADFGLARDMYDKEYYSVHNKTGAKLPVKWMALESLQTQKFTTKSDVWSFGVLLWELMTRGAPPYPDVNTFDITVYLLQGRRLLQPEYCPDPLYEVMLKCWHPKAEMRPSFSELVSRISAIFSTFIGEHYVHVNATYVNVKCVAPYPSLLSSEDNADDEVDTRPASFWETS
Briefly: HGFR continuous-coupled spectrophotometric assay. The settings on record: Table 3, column 'Ki (μM) or I (%)': cells without % sign; read-out: Ki. In kind it is biochemical.
`CC(Oc1cc(-c2ccc(OCCN3CCCC3)nc2)cnc1N)c1c(Cl)ccc(F)c1Cl` (stereo not shown) [Example I-638, 5-[1-(2,6-Dichloro-3-fluoro-phenyl)-ethoxy]-6′-(2-pyrrolidin-1-yl-ethoxy)-[3,3′]bipyridinyl-6-ylamine]: the Ki was determined as 0.094 µM.

With `CC(Oc1cc(-c2ccc(=O)n(CCC3CCCN3C)c2)cnc1N)c1c(Cl)ccc(F)c1Cl` (stereo not shown) [Example I-639, 6′-Amino-5′-[1-(2,6-dichloro-3-fluoro-phenyl)-ethoxy]-1-[2-(1-methyl-pyrrolidin-2-yl)-ethyl]-1H-[3,3′]bipyridinyl-6-one], the Ki was determined as 0.513 µM. On the same count and under the same terms, the result for `CC(Oc1cc(-c2ccc(C(=O)N3CCCN(C)CC3)cc2)cnc1N)c1c(Cl)ccc(F)c1Cl` (stereo not shown) [Example I-603, (4-{6-Amino-5-[1-(2,6-dichloro-3-fluoro-phenyl)-ethoxy]-pyridin-3-yl}-phenyl)-(4-methyl-[1,4]-diazepan-1-yl)-methanone] reads 0.0095 µM; that for `CC(Oc1cc(-c2ccc(C(=O)N3C[C@@H](O)[C@@H](O)C3)cc2)cnc1N)c1c(Cl)ccc(F)c1Cl` (stereo partly drawn) [Example I-607, (4-{6-Amino-5-[1-(2,6-dichloro-3-fluoro-phenyl)-ethoxy]-pyridin-3-yl}-phenyl)-((3R,4S)-3,4-dihydroxy-pyrrolidin-1-yl)-methanone], 0.058 µM.

Staying with this assay, now noted: at 1 pM; Table 6, library procedure 41; read-out: % Inhibition (percent c-MET inhibition).
Turning to `Cn1ccnc1SCC1(O)CCCN(C(=O)c2cnc(N)c(OCc3c(Cl)cccc3Cl)c2)CC1` [Example L-351], the inhibition at 1 pM came to 35%. In the case of `CN(CC(N)=O)C(=O)c1cnc(N)c(OCc2c(Cl)cccc2Cl)c1` [Example L-259], the inhibition at 1 pM stood at 39%. Turning to `Nc1ncc(C(=O)NCc2ncccc2O)cc1OCc1c(Cl)cccc1Cl` [Example L-303], the inhibition at 1 pM was 24%. On the same count and under the same terms, the result for `Cc1cc2cc(CNC(=O)c3cnc(N)c(OCc4c(Cl)cccc4Cl)c3)ccc2[nH]1` [Example L-294] reads 20%; that for `CC(C)CCNC(=O)c1cnc(N)c(OCc2c(Cl)cccc2Cl)c1` [Example L-222], 26%; that for `Nc1ncc(C(=O)NCc2ccc(O)cc2)cc1OCc1c(Cl)cccc1Cl` [Example L-195], 37%. The same measure, in the same setting: for `Nc1ncc(C(=O)NCc2ccccc2OC(F)(F)F)cc1OCc1c(Cl)cccc1Cl` [Example L-200] the value was 31%; for `CC(CCCC(C)(C)O)NC(=O)c1cnc(N)c(OCc2c(Cl)cccc2Cl)c1` [Example L-218], 35%. The same measure, in the same setting: for `COCCN1CCN(C(=O)c2cnc(N)c(OCc3c(Cl)cccc3Cl)c2)CC1` [Example L-248] the value was 27%; for `Nc1ncc(C(=O)NCCc2c[nH]cn2)cc1OCc1c(Cl)cccc1Cl` [Example L-185], 29%; for `Nc1ncc(C(=O)NCC(O)CN2CCC(Cc3ccccc3)CC2)cc1OCc1c(Cl)cccc1Cl` [Example L-276], 32%. With `Nc1ncc(C(=O)NCC2=CSC3=NCCN23)cc1OCc1c(Cl)cccc1Cl` [Example L-292], the inhibition at 1 pM is 99%. Same read-out and setting: the result for `Nc1ncc(C(=O)N2CCN(CC(=O)N3CCCC3)CC2)cc1OCc1c(Cl)cccc1Cl` [Example L-206] reads 32%. Turning to `Nc1ncc(C(=O)N2CCN(c3ccccn3)CC2)cc1OCc1c(Cl)cccc1Cl` [Example L-196], the inhibition at 1 pM amounted to 34%.

Take `Nc1ncc(C(=O)NCCc2ccc(O)cc2)cc1OCc1c(Cl)cccc1Cl` [Example L-219]: the inhibition at 1 pM was found to be 34%. On the same count and under the same terms, for `Nc1ncc(C(=O)N2CCC3(CC2)CC3C(=O)N2CCCCC2)cc1OCc1c(Cl)cccc1Cl` [Example L-325] the value was 26%.

Staying with this assay, now noted: at 1 pM; Table 7, library procedure 42; read-out: % Inhibition (percent c-MET inhibition).
Regarding `CC(C)Oc1cc(C(F)(F)F)nc2ccc(COc3cc(-c4ccc(C(=O)N5CCC(N6CCCC6)CC5)cc4)cnc3N)cc12`, the inhibition at 1 pM was found to be 19%. `Nc1ncc(-c2ccc(C(=O)N3CCC(N4CCCC4)CC3)cc2)cc1OCc1cccc(Br)c1`: the inhibition at 1 pM came out at 24%.

As to `Cc1cccc(COc2cc(-c3ccc(C(=O)N4CCC(N5CCCC5)CC4)cc3)cnc2N)n1`, the inhibition at 1 pM came out at 17%. Same read-out and setting: for `Cn1nc(C2CC2)nc1COc1cc(-c2ccc(C(=O)N3CCC(N4CCCC4)CC3)cc2)cnc1N` the value was 5%; for `Cc1oc(-c2ccccc2)nc1COc1cc(-c2ccc(C(=O)N3CCC(N4CCCC4)CC3)cc2)cnc1N`, 19%.

`Cc1cc(-c2onc(C)c2COc2cc(-c3ccc(C(=O)N4CCC(N5CCCC5)CC4)cc3)cnc2N)no1`: the inhibition at 1 pM stood at 22%. Still for that read-out and setting: for `Nc1ncc(-c2ccc(C(=O)N3CCC(N4CCCC4)CC3)cc2)cc1OCc1cccc(C(=O)NCc2cccnc2)c1` the value was 14%; for `Cc1cccc(COc2cc(-c3ccc(C(=O)N4CCC(N5CCCC5)CC4)cc3)cnc2N)c1F`, 28%. The same measure, in the same setting: the result for `Nc1ncc(-c2ccc(C(=O)N3CCC(N4CCCC4)CC3)cc2)cc1OCc1ccc(F)c(F)c1F` reads 15%; that for `Nc1ncc(-c2ccc(C(=O)N3CCC(N4CCCC4)CC3)cc2)cc1OCc1ccc(S(=O)(=O)Nc2ccc(F)cc2)cc1`, 15%; that for `Nc1ncc(-c2ccc(C(=O)N3CCC(N4CCCC4)CC3)cc2)cc1OCc1cccc(OC(F)(F)F)c1`, 13%. `CC(C)NC(=O)c1ccc(-c2noc(COc3cc(-c4ccc(C(=O)N5CCC(N6CCCC6)CC5)cc4)cnc3N)n2)cc1`: the inhibition at 1 pM worked out at 18%.

Take `Cc1ccc(-c2nnc(COc3cc(-c4ccc(C(=O)N5CCC(N6CCCC6)CC5)cc4)cnc3N)o2)cc1`: the inhibition at 1 pM was found to be 18%. `Cc1ccc(F)cc1COc1cc(-c2ccc(C(=O)N3CCC(N4CCCC4)CC3)cc2)cnc1N`: the inhibition at 1 pM worked out at 29%.

The assay is the same for the next values; noted with them: at 50 nM; Table 5, library procedure 40; read-out: % inhibition (percent c-MET inhibition).
Turning to `CC(Oc1cc(-c2ccc(C(=O)NCC(N)=O)cc2)cnc1N)c1c(Cl)ccc(F)c1Cl` [Example L-21], the inhibition at 0.05 µM came to 86%.

On to `CC(Oc1cc(-c2ccc(C(=O)N3CCN(CC4CCN(C)CC4)CC3)cc2)cnc1N)c1c(Cl)ccc(F)c1Cl` [Example L-165], for which the inhibition at 0.05 µM is 88%. Turning to `CC(=O)NCCNC(=O)c1ccc(-c2cnc(N)c(OC(C)c3c(Cl)ccc(F)c3Cl)c2)cc1` [Example L-24], the inhibition at 0.05 µM turned out to be 71%. Take `Cc1noc([C@H]2CC[C@H](CNC(=O)c3ccc(-c4cnc(N)c(O[C@@H](C)c5c(Cl)ccc(F)c5Cl)c4)cc3)CC2)n1` [Example L-176]: the inhibition at 0.05 µM was found to be 51%.

For `COCCNC(=O)c1ccc(-c2cnc(N)c(OC(C)c3c(Cl)ccc(F)c3Cl)c2)cc1` [Example L-79], the inhibition at 0.05 µM was 73%.

Take `CC(Oc1cc(-c2ccc(C(=O)N[C@@H]3CCN(Cc4ccccc4)C3)cc2)cnc1N)c1c(Cl)ccc(F)c1Cl` (stereo partly drawn) [Example L-15]: the inhibition at 0.05 µM was found to be 67%.

In the case of `C[C@H](Oc1cc(-c2ccc(C(=O)NC[C@H](O)c3ccccc3)cc2)cnc1N)c1c(Cl)ccc(F)c1Cl` [Example L-91], the inhibition at 0.05 µM was 69%. Regarding `COC1CCN(C(=O)c2ccc(-c3cnc(N)c(OC(C)c4c(Cl)ccc(F)c4Cl)c3)cc2)CC1` [Example L-169], the inhibition at 0.05 µM was 79%. Same read-out and setting: the result for `CC(Oc1cc(-c2ccc(C(=O)N(C)CCO)cc2)cnc1N)c1c(Cl)ccc(F)c1Cl` [Example L-104] reads 89%; that for `CC(Oc1cc(-c2ccc(C(=O)N3CCC(CCO)CC3)cc2)cnc1N)c1c(Cl)ccc(F)c1Cl` [Example L-142], 72%; that for `Cc1cnc(CNC(=O)c2ccc(-c3cnc(N)c(OC(C)c4c(Cl)ccc(F)c4Cl)c3)cc2)cn1` [Example L-57], 76%. Still for that read-out and setting: the result for `CC(Oc1cc(-c2ccc(C(=O)N3CCCN(C)CC3)cc2)cnc1N)c1c(Cl)ccc(F)c1Cl` [Example L-39] reads 77%.

`CC(Oc1cc(-c2ccc(C(=O)NCc3ccccn3)cc2)cnc1N)c1c(Cl)ccc(F)c1Cl` [Example L-10]: the inhibition at 0.05 µM was determined as 67%. As for `CC(Oc1cc(-c2ccc(C(=O)NCCO)cc2)cnc1N)c1c(Cl)ccc(F)c1Cl` [Example L-106], the inhibition at 0.05 µM came to 89%.

Consider `CC(Oc1cc(-c2ccc(C(=O)N(C)CCc3ccncc3)cc2)cnc1N)c1c(Cl)ccc(F)c1Cl` [Example L-76], for which the inhibition at 0.05 µM turned out to be 73%. With `CC(Oc1cc(-c2ccc(C(=O)NCc3ccncc3)cc2)cnc1N)c1c(Cl)ccc(F)c1Cl` [Example L-27], the inhibition at 0.05 µM was 74%.

The assay is the same for the next values; noted with them: at 1 μM; Table 8, library procedure 43; read-out: % Inhibition (percent c-MET inhibition).
As for `Cc1ccc(-c2nnc(COc3cc(-c4ccc(C(=O)N5CC(C)NC(C)C5)cc4)cnc3N)o2)cc1` (stereo not shown), the inhibition at 1 µM turned out to be 14%. For the compound `CC1CN(C(=O)c2ccc(-c3cnc(N)c(OCc4cccc(C(=O)Nc5ccc(N6CCCCC6)cc5)c4)c3)cc2)CC(C)N1` (stereo not shown), the inhibition at 1 µM stood at 28%. Same read-out and setting: the result for `CC1CN(C(=O)c2ccc(-c3cnc(N)c(OCc4cccc(-c5ccnc(Br)n5)c4)c3)cc2)CC(C)N1` (stereo not shown) reads 19%. Still for that read-out and setting: the result for `CCN1CCCC1CNC(=O)c1cccc(COc2cc(-c3ccc(C(=O)N4CC(C)NC(C)C4)cc3)cnc2N)c1` (stereo not shown) reads 10%; that for `CCOC(=O)CCNC(=O)c1cccc(COc2cc(-c3ccc(C(=O)N4CC(C)NC(C)C4)cc3)cnc2N)c1` (stereo not shown), 14%; that for `CC1CN(C(=O)c2ccc(-c3cnc(N)c(OCc4cccc(OC(F)(F)F)c4)c3)cc2)CC(C)N1` (stereo not shown), 17%.

Still in this assay, the particulars now being: cells prefixed Ki; read-out: Met Ki.
Consider `CC(Oc1cc(-c2ccc(OCC(=O)N3CCN(C(=O)OC(C)(C)C)CC3)cc2)cnc1N)c1c(Cl)ccc(F)c1Cl` (stereo not shown) [Example I-479, 4-[2-(4-{6-Amino-5-[1-(2,6-dichloro-3-fluoro-phenyl)-ethoxy]-pyridin-3-yl}-phenoxy)-acetyl]-piperazine-1-carboxylic acid tert-butyl ester], for which the Ki was 0.16 µM. Same read-out and setting: for `CC(Oc1cc(C#CC(C)(C)NC(=O)N2CCC(N3CCCC3)CC2)cnc1N)c1c(Cl)ccc(F)c1Cl` (stereo not shown) [Example I-438, 4-Pyrrolidin-1-yl-pipendine-1-carboxylic acid (3-{6-amino-5-[1-(2,6-dichloro-3-fluoro-phenyl)-ethoxy]-pyridin-3-yl}-1,1-dimethyl-prop-2-ynyl)-amide] the value was 0.72 µM.
